Measured values taken from patent US9434734B2, “Substituted pyrazoloquinazolinones and pyrroloquinazolinones as allosteric modulators of group II metabotropic glutamate receptors” (Domain Therapeutics, priority 2012, dated 2016).
pIC50: −log10 of the molar value.

How the values were obtained:
[1] = target: T1, human mGluR2 (hmGluR2) transiently over-expressed in HEK-293 cells (Homo sapiens, UniProt Q14416); experiment: Human mGluR2 negative allosteric modulator evaluation using Ca++ functional assay (agonist and NAM activity); format: cell-based; conditions: hmGluR2 in HEK-293 cells, EC80 glutamate, Fluo4AM calcium readout; read-out: mGluR2 negative allosteric modulator activity IC50
T1 construct: expressed in transfected cells; host or cells: HEK-293 cells, transient co-transfection by electroporation
Description: Human mGluR2 Negative Allosteric Modulator Evaluation Using Ca^++ Functional Assay
Compounds of the present invention were tested successively for their agonist and negative allosteric modulator activities on human mGluR2 (hmGluR2) transiently over-expressed in HEK-293 cells. They exert agonist activity if they are able to activate mGluR2 by themselves, i.e., in absence of the endogenous agonist glutamate; and they exert negative allosteric modulator activity if they decrease the action of the endogenous agonist glutamate.
HEK-293 cells were maintained in Modified Eagle's Medium supplemented with 10% Foetal Calf Serum, 1% Penicillin/Streptomycin and 1% nonessential amino acids at 37° C./5% CO2.
Cells were plated after transfection onto polyornithine coated, clear bottom, black-walled, 96-well plates and cultured for 24 h.
Receptor activity was detected by changes in intracellular calcium measured using the fluorescent Ca^2+ sensitive dye, Fluo4AM (Molecular Probes).
The day of the assay, medium was aspirated and replaced during 3 hours by medium without serum supplemented with 1% Glutamax, 1% Penicillin/Streptomycin and 1% nonessential amino acids. Then, cells were washed with freshly prepared buffer B (HBSS 1× (PAA), Hepes 20 mM, MgSO4-7H2O 1 mM, Na2CO3 3.3 mM, CaCl2-2H2O 1.3 mM, 0.5% BSA, Probenecid 2.5 mM) and loaded at 37° C./5% CO2 for 1.5 hours with buffer B containing 1 μM Fluo4AM, 0.1 mg/mL Pluronic Acid, 7 μg/mL Glutamate Pyruvate Transaminase and 2 mM sodium pyruvate. Afterwards cells were washed twice with buffer B and 50 μL of this buffer were added to each well.
Agonist and negative allosteric modulator activities of compounds were consecutively evaluated on the same cells plate. […] Then, the cells were stimulated by an EC80 glutamate concentration and fluorescence was recorded for additional 60 s. EC80 glutamate concentration is the concentration giving 80% of the maximal glutamate response. Agonist and/or negative allosteric modulator activity(ies) were evaluated in comparison to basal signal or signal evoked by EC80 glutamate alone, respectively.
For potency determination, a dose-response test was performed using 8 concentrations of each compound of the invention. Dose-response curves were fitted using the sigmoidal dose-response (variable slope) analysis in GraphPad Prism program (Graph Pad Inc) and EC50 of agonist/IC50 of negative allosteric modulator activity was calculated. Dose-response experiments were all performed in duplicate, two times independently.

T1 sequence (Q14416 19-872): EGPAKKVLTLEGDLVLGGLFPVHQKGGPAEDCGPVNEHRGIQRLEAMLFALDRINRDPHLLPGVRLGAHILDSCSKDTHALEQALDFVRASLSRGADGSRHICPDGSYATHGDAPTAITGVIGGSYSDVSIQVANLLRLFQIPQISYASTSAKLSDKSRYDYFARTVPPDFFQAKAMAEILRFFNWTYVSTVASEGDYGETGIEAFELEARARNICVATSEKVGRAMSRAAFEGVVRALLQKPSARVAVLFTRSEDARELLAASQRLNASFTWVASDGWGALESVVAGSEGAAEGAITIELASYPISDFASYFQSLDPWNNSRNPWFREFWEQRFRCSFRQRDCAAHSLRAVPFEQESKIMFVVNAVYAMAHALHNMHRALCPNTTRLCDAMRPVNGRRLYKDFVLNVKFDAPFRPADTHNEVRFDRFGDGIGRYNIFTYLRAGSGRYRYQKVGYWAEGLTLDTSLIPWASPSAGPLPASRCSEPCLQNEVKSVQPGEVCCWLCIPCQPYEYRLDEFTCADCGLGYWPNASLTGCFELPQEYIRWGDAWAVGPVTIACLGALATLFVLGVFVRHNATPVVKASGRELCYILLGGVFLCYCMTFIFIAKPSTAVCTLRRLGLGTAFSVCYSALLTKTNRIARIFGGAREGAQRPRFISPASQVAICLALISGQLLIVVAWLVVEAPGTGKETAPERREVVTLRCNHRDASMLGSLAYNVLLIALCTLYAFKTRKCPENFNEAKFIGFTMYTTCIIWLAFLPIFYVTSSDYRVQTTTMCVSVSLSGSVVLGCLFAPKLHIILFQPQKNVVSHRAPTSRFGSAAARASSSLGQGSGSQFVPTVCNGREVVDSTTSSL

pIC50 [1] | melting point [°C] | Structure (SMILES)
> 6.00 | 173 to 175 | Cn1c(=O)c2ccc(-c3ccc(N)cc3)cc2n2nc(-c3ccccc3)cc12 [Example 3, 8-(4-Amino-phenyl)-4-methyl-2-phenyl-4H-pyrazolo[1,5-a]quinazolin-5-one]
> 6.00 | > 250 | Cn1c(=O)c2ccc(-c3cn[nH]c3)cc2n2nc(-c3ccccc3)cc12 [Example 6, 4-Methyl-2-phenyl-8-(1H-pyrazol-4-yl)-4H-pyrazolo[1,5-a]quinazolin-5-one]
> 6.00 | > 250 | Cn1c(=O)c2ccc(-c3ccc4nccn4c3)cc2n2nc(-c3ccccc3)cc12 [Example 8, 8-Imidazo[1,2-a]pyridin-6-yl-4-methyl-2-phenyl-4H-pyrazolo[1,5-a]quinazolin-5-one]
> 6.00 | > 250 | Cn1c(=O)c2ccc(-c3ccc(S(N)(=O)=O)cc3)cc2n2nc(-c3ccccc3)cc12 [Example 10, 4-(4-Methyl-5-oxo-2-phenyl-4,5-dihydro-pyrazolo[1,5-a]quinazolin-8-yl)-benzenesulfonamide]
> 6.00 | 207 to 209 | CC(=O)c1cccc(-c2ccc3c(=O)n(C)c4cc(-c5ccccc5)nn4c3c2)c1 [Example 14, 8-(3-Acetyl-phenyl)-4-methyl-2-phenyl-4H-pyrazolo[1,5-a]quinazolin-5-one]
> 6.00 | > 250 | Cc1n[nH]c(C)c1-c1ccc2c(=O)n(C)c3cc(-c4ccccc4)nn3c2c1 [Example 15, 8-(3,5-Dimethyl-1H-pyrazol-4-yl)-4-methyl-2-phenyl-4H-pyrazolo[1,5-a]quinazolin-5-one]
> 6.00 | > 250 | Cn1cc(-c2ccc3c(=O)n(C)c4cc(-c5ccccc5)nn4c3c2)cn1 [Example 16, 4-Methyl-8-(1-methyl-1H-pyrazol-4-yl)-2-phenyl-4H-pyrazolo[1,5-a]quinazolin-5-one]
> 6.00 | 245 to 249 | Cn1c(=O)c2ccc(-c3cc[nH]n3)cc2n2nc(-c3ccccc3)cc12 [Example 17, 4-Methyl-2-phenyl-8-(1H-pyrazol-3-yl)-4H-pyrazolo[1,5-a]quinazolin-5-one]
> 6.00 | 174 to 176 | Cc1n[nH]cc1-c1ccc2c(=O)n(C)c3cc(-c4ccccc4)nn3c2c1 [Example 18, 4-Methyl-8-(3-methyl-1H-pyrazol-4-yl)-2-phenyl-4H-pyrazolo[1,5-a]quinazolin-5-one]
> 6.00 | > 250 | Cn1c(=O)c2ccc(-c3c[nH]nc3C(F)(F)F)cc2n2nc(-c3ccccc3)cc12 [Example 19, 4-Methyl-2-phenyl-8-(3-trifluoromethyl-1H-pyrazol-4-yl)-4H-pyrazolo[1,5-a]quinazolin-5-one]
> 6.00 | 228 to 231 | Cn1c(=O)c2ccc(-c3ncco3)cc2n2nc(-c3ccccc3)cc12 [Example 20, 4-Methyl-8-oxazol-2-yl-2-phenyl-4H-pyrazolo[1,5-a]quinazolin-5-one]
> 6.00 | 222 to 225 | Cn1c(=O)c2ccc(-c3cnco3)cc2n2nc(-c3ccccc3)cc12 [Example 21, 4-Methyl-8-oxazol-5-yl-2-phenyl-4H-pyrazolo[1,5-a]quinazolin-5-one]
> 6.00 | 235 to 240 | Cc1cc(N)ncc1-c1ccc2c(=O)n(C)c3cc(-c4ccccc4)nn3c2c1.Cl [Example 24, 8-(6-Amino-4-methyl-pyridin-3-yl)-4-methyl-2-phenyl-4H-pyrazolo[1,5-a]quinazolin-5-one]
> 6.00 | 218 to 220 | Cc1nc(N)ccc1-c1ccc2c(=O)n(C)c3cc(-c4ccccc4)nn3c2c1.Cl [Example 25, 8-(6-Amino-2-methyl-pyridin-3-yl)-4-methyl-2-phenyl-4H-pyrazolo[1,5-a]quinazolin-5-one]
> 6.00 | 226 to 227 | Cc1cc(-c2ccc3c(=O)n(C)c4cc(-c5ccccc5)nn4c3c2)cnc1N.Cl [Example 26, 8-(6-Amino-5-methyl-pyridin-3-yl)-4-methyl-2-phenyl-4H-pyrazolo[1,5-a]quinazolin-5-one]
> 6.00 | 239 to 240 | CCc1nc(N)ccc1-c1ccc2c(=O)n(C)c3cc(-c4ccccc4)nn3c2c1.Cl [Example 27, 8-(6-Amino-2-ethyl-pyridin-3-yl)-4-methyl-2-phenyl-4H-pyrazolo[1,5-a]quinazolin-5-one]
> 6.00 | > 250 | Cl.Cn1c(=O)c2ccc(-c3ccc(N)nn3)cc2n2nc(-c3ccccc3)cc12 [Example 29, 8-(6-Amino-pyridazin-3-yl)-4-methyl-2-phenyl-4H-pyrazolo[1,5-a]quinazolin-5-one]
> 6.00 | 192 to 193 | Cl.Cn1c(=O)c2ccc(-c3cnc(N)cn3)cc2n2nc(-c3ccccc3)cc12 [Example 30, 8-(5-Amino-pyrazin-2-yl)-4-methyl-2-phenyl-4H-pyrazolo[1,5-a]quinazolin-5-one]
> 6.00 | > 250 | Cl.Cn1c(=O)c2ccc(-c3cnc(N)nc3)cc2n2nc(-c3ccccc3)cc12 [Example 31, 8-(2-Amino-pyrimidin-5-yl)-4-methyl-2-phenyl-4H-pyrazolo[1,5-a]quinazolin-5-one]
> 6.00 | – | Cc1cc(-c2ccc3c(=O)n(C)c4cc(-c5cc(C)nc(C)c5)nn4c3c2)cc(C)n1 [Example 114, 2,8-Bis-(2,6-dimethyl-pyridin-4-yl)-4-methyl-4H-pyrazolo[1,5-a]quinazolin-5-one]
> 6.00 | – | Cc1cc(-c2cc3n(C)c(=O)c4ccc(-c5cccnc5)cc4n3n2)cc(C)n1 [Example 116, 2-(2,6-Dimethyl-pyridin-4-yl)-4-methyl-8-pyridin-3-yl-4H-pyrazolo[1,5-a]quinazolin-5-one]
> 6.00 | – | Cc1ccc(-c2ccc3c(=O)n(C)c4cc(-c5cc(C)nc(C)c5)nn4c3c2)cn1 [Example 117, 2-(2,6-Dimethyl-pyridin-4-yl)-4-methyl-8-(6-methyl-pyridin-3-yl)-4H-pyrazolo[1,5-a]quinazolin-5-one]
> 6.00 | – | Cc1cncc(-c2ccc3c(=O)n(C)c4cc(-c5cc(C)nc(C)c5)nn4c3c2)c1 [Example 118, 2-(2,6-Dimethyl-pyridin-4-yl)-4-methyl-8-(5-methyl-pyridin-3-yl)-4H-pyrazolo[1,5-a]quinazolin-5-one]
> 6.00 | – | Cc1cc(-c2cc3n(C)c(=O)c4ccc(-c5cnccc5C)cc4n3n2)cc(C)n1 [Example 119, 2-(2,6-Dimethyl-pyridin-4-yl)-4-methyl-8-(4-methyl-pyridin-3-yl)-4H-pyrazolo[1,5-a]quinazolin-5-one]
> 6.00 | – | Cc1cc(-c2cc3n(C)c(=O)c4ccc(-c5cccnc5C)cc4n3n2)ccn1 [Example 132, 2-(2-methyl-pyridin-4-yl)-4-methyl-8-(2-methyl-pyridin-3-yl)-4H-pyrazolo[1,5-a]quinazolin-5-one]
> 6.00 | – | Cc1cc(-c2cc3n(C)c(=O)c4ccc(-c5cc(C)nc(C)c5)cc4n3n2)ccn1 [Example 133, 8-(2,6-Dimethyl-pyridin-4-yl)-4-methyl-2-(2-methyl-pyridin-4-yl)-4H-pyrazolo[1,5-a]quinazolin-5-one]
